# Read-outs that look alike come from different tables or passages of the source.
# Columns and labels:
# [1] = system: cultured trabecular-meshwork cells; settings: cited from earlier work
# fibroblasts = settings: cited from earlier work
# [2] = system: human corneal fibroblasts; assay: Induction of prostaglandin synthesis in cultured human corneal fibroblasts (enzyme immunoassay of conditioned medium); format: cell-based; settings: 10 ng/ml
# Description: Primary human corneal fibroblasts were grown in culture from freshly denuded corneal stromal tissue from a donor. Cells (passage 4) were seeded into 12-well plates and grown to 80% confluency. Selected cells were then exposed to Interleukin-1 alpha (10 ng/ml final) in Ham's F-10 Nutrient mixture (HyClone Corporation) containing 10% fetal bovine serum by medium replacement in the wells. Control cells received medium devoid of this inflammatory cytokine. Cells were then incubated in a 37° C., 5% CO2, humidified incubator for 24 hours. Conditioned medium was then removed, centrifuged to remove any cellular debris (3 minutes at 2600 rpm and 4° C.), and analyzed for PGE2 and PGF2α, levels in the medium using specific enzyme immunoassay kits (Cayman Scientific). Cells in each well were counted, and prostaglandin levels normalized to the cell count for the respective wells.
# [3] = system: human trabecular meshwork cells; assay: Induction of PGE2 synthesis in cultured human trabecular meshwork cells (14C-arachidonic acid, TLC); format: cell-based; settings: 10 ng/ml each; for % of total CPM in PGE2 fraction (mean ± std dev): 17 hours then 14C-arachidonic acid for 4 hours
# Description: Primary human trabecular meshwork cells were grown in culture according to the method of Weinreb, et al. from a donor. Cells (passage 5) were seeded into 12-well plates and grown until they just reached confluency, with culture medium replacement every 3-4 days. Triplicate wells of cells were then exposed to interleukin-1 beta (10 ng/ml final), TGF-beta 1 (10 ng/ml final) or both in 1 ml of Ham's F-10 Nutrient Mixture (Gibco-BRL), containing 2 mM L-glutamine and 0.4 mg/ml bovine serum albumin (Sigma Chemical Co.). Control cells received medium devoid of IL-1β and TGF-β1. Cells were then incubated in a 37° C., 5% CO2, humidified incubator for 17 hours. ^14C-arachidonic acid (300,000 dpm) was added to each well, and the cells were returned to the incubator for an additional 4 hours. A modified Bligh & Dyer lipid extraction [Can. J. Biochem. Physiol. 37,911 (1959)] was then performed on the cells and supernatants. An aliquot of the extracted samples and fatty acid standards were spotted on a moderate hardness silica gel thin-layer chromatography plate (Alltech K5, 20×20 cm, 250 μm thick). The plate was developed in prostaglandin TLC solvent (11:5:2:10 ethyl acetate: 2,2,4-trimethylpentane: acetic acid: distilled water), air-dried, and standard bands were visualized with vaporization of iodine crystals. Each lane on the plate was divided into segments based upon the position of the standards, and each segment was scraped off of the plate with a razor blade into a glass scintillation vial. Opti-fluor scintillation cocktail (Packard) was added to each vial, and the samples were counted on a beta scintillation counter. The amount of each fraction was calculated as a percentage of total counts per minute (CPM) from that sample.
# [4] = 24 hours, conditioned medium, normalized to cell count
compound,measurement,setting,value
CCCCC/C=C\C/C=C\C/C=C\C/C=C\CCCC(=O)O [arachidonic acid],effect on PGE2 synthesis,[1],stimulate PGE2 synthesis
PDGF,stimulation of PGE2 synthesis,fibroblasts,10-15 fold
same,stimulation of PGE2 synthesis,fibroblasts; in the presence of exogenous arachidonic acid,28 fold
INTERLEUKIN-1α: inflammatory cytokine Interleukin-1 alpha,"PGE2 produced per 100,000 cells in 24 hours (mean ± std dev)",[2]; [4],"48,736 ± 3597 PICOGRAMS"
same,"PGF2α produced per 100,000 cells in 24 hours (mean ± std dev)",[2]; [4],1704 ± 367 PICOGRAMS
same,elevation of the level of PGE2,[2]; versus unstimulated cells,> 47 fold
same,elevation of the level of PGF2α,[2]; versus unstimulated cells,> 3 fold
"TGF-β1: Transforming Growth Factor beta 1, prostaglandin upregulating agent",increase in PGE2 synthesis over non-treated control,[3],74%
same,% of total CPM in PGE2 fraction (mean ± std dev),[3],3.01 ± 0.38%
"IL-1β: interleukin-1 beta, prostaglandin upregulating agent (Genzyme)",increase in PGE2 synthesis over non-treated control,[3],440%
same,% of total CPM in PGE2 fraction (mean ± std dev),[3],9.34 ± 0.70%
CNc1ccc2oc(C[C@H]3O[C@@]4(CC[C@H]3C)O[C@H]([C@H](C)C(=O)c3ccc[nH]3)[C@H](C)C[C@H]4C)nc2c1C(=O)O [lonophore A23187],effect on PGE2 synthesis,[1],stimulate PGE2 synthesis
NCCc1c[nH]cn1 [histamine],effect on PGE2 synthesis,[1],stimulate PGE2 synthesis
CCCCC/C=C\C\C=C/C=C/C=C/[C@@H](SC[C@H](NC(=O)CC[C@H](N)C(=O)O)C(=O)NCC(=O)O)[C@@H](O)CCCC(=O)O [leukotriene C4],effect on PGE2 synthesis,[1],stimulate PGE2 synthesis

# Source: patent publication US6376541B1, “Upregulation of endogenous prostaglandins to lower intraocular pressure” (Alcon Manufacturing, Ltd., priority 1998, dated 2002)
